Test in all cases: stopped-flow CO2 hydrase assay
Holding throughout (type): biochemical

One test has as its target T1, hCA I (Homo sapiens, UniProt P00915).
T1 construct: gene CA1; recombinant, obtained in house

The next test concerns the target T2, EcoβCA (Escherichia coli, UniProt P61517).
T2 construct: gene can; recombinant, expressed in E. coli (DE3), purified

The next test addresses T3, EcoγCA (Escherichia coli, UniProt P0A9W9).
T3 construct: gene yrdA; recombinant, expressed in E. coli (DE3), purified
T3 sequence (P0A9W9 1-184): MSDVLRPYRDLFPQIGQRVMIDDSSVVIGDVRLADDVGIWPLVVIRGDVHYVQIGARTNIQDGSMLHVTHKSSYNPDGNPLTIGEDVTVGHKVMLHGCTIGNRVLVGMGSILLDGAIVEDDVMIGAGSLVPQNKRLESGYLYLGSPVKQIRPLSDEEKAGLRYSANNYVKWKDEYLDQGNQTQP

A further test concerns the target T4, hCA II (Homo sapiens, UniProt P00918).
T4 construct: gene CA2; recombinant, obtained in house

For the next test, the target named is T5, psCA3-β (Pseudomonas aeruginosa, UniProt Q9HVB9).
T5 construct: gene PA4676; recombinant, expressed in E. coli (DE3), purified
T5 sequence (Q9HVB9 1-215): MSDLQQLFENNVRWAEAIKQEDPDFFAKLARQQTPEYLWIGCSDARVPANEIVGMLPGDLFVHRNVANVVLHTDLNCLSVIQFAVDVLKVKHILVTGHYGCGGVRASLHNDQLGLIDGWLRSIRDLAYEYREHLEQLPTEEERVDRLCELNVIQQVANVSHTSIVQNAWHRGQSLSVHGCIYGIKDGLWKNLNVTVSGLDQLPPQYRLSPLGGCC

The next test has as its target T6, HpαCA (Helicobacter pylori, UniProt O25798).
T6 construct: gene HP_1186; recombinant, expressed in E. coli (DE3), purified
T6 sequence (O25798 19-202): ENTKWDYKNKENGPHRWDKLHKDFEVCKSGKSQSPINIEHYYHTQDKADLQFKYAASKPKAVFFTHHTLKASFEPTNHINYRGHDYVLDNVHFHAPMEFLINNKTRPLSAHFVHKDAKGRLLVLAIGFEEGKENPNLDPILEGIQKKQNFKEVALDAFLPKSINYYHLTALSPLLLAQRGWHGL
The following applies: HEPES pH 7.40, 20 mM Na2SO4, 15 min preincubation, room temperature.

The next test deals with T7, HpβCA (Helicobacter pylori, UniProt O24855).
T7 construct: gene cynT; recombinant, expressed in E. coli (DE3), purified
T7 sequence (O24855 1-221): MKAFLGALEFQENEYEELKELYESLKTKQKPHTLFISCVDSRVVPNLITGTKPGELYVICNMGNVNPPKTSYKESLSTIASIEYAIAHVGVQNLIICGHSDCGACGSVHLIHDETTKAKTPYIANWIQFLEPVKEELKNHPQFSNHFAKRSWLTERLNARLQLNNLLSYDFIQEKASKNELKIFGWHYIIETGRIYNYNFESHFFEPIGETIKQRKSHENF

Molecules are shown by their SMILES. pKi: −log10 of the molar value. Some results are limits rather than exact numbers.

T1 sequence (P00915 2-261): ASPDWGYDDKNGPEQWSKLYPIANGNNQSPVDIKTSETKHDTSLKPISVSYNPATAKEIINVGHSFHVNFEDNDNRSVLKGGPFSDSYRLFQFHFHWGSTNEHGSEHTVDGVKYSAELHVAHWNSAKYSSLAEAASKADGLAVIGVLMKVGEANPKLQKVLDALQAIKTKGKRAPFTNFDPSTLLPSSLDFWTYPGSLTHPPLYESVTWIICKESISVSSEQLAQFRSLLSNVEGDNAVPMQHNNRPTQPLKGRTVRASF
T2 sequence (P61517 whole entry): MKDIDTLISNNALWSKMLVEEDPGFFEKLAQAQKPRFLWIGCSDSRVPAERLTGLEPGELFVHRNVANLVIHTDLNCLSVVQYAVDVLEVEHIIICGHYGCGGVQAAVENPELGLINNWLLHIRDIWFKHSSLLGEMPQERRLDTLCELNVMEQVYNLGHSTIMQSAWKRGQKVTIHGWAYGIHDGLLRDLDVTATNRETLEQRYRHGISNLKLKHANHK

For `CNC(=S)NN=C(C)c1ccc2c(c1)OCCO2` [compound 7, TSC 7], the pKi is < 3.00 on hCA I and 4.02 on EcoβCA.
Take `CNC(=S)NN=C(C)c1ccc(OC)cc1` [compound 1, TSC 1]: the pKi on EcoγCA was 4.06; at hCA II, < 3.10; at psCA3-β, 4.04.
Turning to `CNC(=S)NN=C(C)c1ccc2c(c1)OCO2` [compound 6, TSC 6], on hCA I, the pKi is < 3.00.
For the molecule `CNC(=S)NN=C(C)c1ccc(-n2ccnc2)cc1` [compound 4, TSC 4], the pKi at hCA I was < 3.00.
As to `CNC(=S)NN=C(C)c1ccc(N2CCOCC2)cc1` [compound 3, TSC 3], the results for the pKi at EcoβCA and on hCA II were 4.04 and < 3.10, respectively.
Turning to `CNC(=S)NN=C(C)c1ccc(Br)s1` [compound 9, TSC 9], the pKi is 4.08 on EcoγCA, < 3.10 on hCA II and 4.06 at psCA3-β.
In the case of `CNC(=S)NN=C(C)c1ccc(S(C)(=O)=O)cc1` [compound 2, TSC 2], the pKi on EcoγCA is 4.10; at hCA II, < 3.10; on psCA3-β, 4.03.
As to `CNC(=S)NN=C(C)c1ccc(-c2cc3ccccc3[nH]2)cc1` [compound 5, TSC 5], the results for the pKi at HpαCA and at HpβCA were 4.02 and 3.46, respectively.

Usually pKi stands for −log10 of the Ki, conventionally taken in molar units. A higher pKi goes with a low Ki.

The values are drawn from publication PMC8956313, “Biological investigation of N-methyl thiosemicarbazones as antimicrobial agents and bacterial carbonic anhydrases inhibitors” (Journal of Enzyme Inhibition and Medicinal Chemistry, 2022).
